Common to all, as to experiment: NCI-60 cell line screen, 48 h
Experiment [1] deals with 786-0 renal.
Experiment [2] has as its system SF-539 CNS.
Experiment [3] concerns HT29 colon.
For experiment [4], the system named is SN12C renal.
The subject of experiment [5] is LOX IMVI melanoma.
In experiment [6] the test system is UO-31 renal.
Experiment [7] relates to NCI-H226 lung.
Experiment [8] relates to NCI/ADR-RES ovarian.
Experiment [9] has as its system SK-OV-3 ovarian.
Experiment [10] deals with NCI-H460 lung.

Molecules are shown by their SMILES. Several values for one entry are separate records, joined by “and”; a condition that tells them apart may be missing. Equal entries are not always repeated.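 Test compounds were applied to cells in 96-well plates for 48 hours at 5 doses. The concentration for 50% growth inhibition is given as GI50. TGI is the concentration that stops growth completely.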

Take `C=C1C(=O)O[C@H]2[C@H]1CC/C(COC(=O)N[C@H]1C[C@H](O[C@H]3C[C@](O)(C(=O)CO)Cc4c(O)c5c(c(O)c43)C(=O)c3c(OC)cccc3C5=O)O[C@@H](C)[C@H]1O)=C\CC[C@@]1(C)O[C@@H]21`: the GI50 in experiment [1] was 5.7 µM; in experiment [2], 2.37 µM; in experiment [3], 4.48 µM; in experiment [4] it was 5.07 µM; in experiment [5], 2.17 µM; in experiment [6] it was above 50 µM. For the same molecule, the GI50 is 5.33 µM in [7], above 50 µM in [8], above 50 µM in experiment [9] and 9.02 µM in experiment [10]. The TGI is 16.5 µM in experiment [1]; 8.43 µM in experiment [2]; 22 µM in [3]; 14.4 µM in experiment [4]; 8.25 µM in experiment [5]; above 50 µM in [6]. Further, the TGI in [7] is 12.6 µM; in experiment [8], above 50 µM; in [9] it was above 50 µM; in [10] it was above 50 µM.

Turning to `Cc1ccc(S(=O)(=O)c2nc(-c3ccccc3)oc2S(C)(=O)=O)cc1`, the GI50 in [1] is 1.66 µM; in experiment [2] it was 1.56 µM; in experiment [3], 2.81 µM; in experiment [4], 1.92 µM; in experiment [5], 1.59 µM; in experiment [6] it was 1.48 µM. The GI50 is 3.31 µM in experiment [7], 7.43 µM in [8], 15.9 µM in experiment [9] and 13.3 µM in experiment [10]. For the same molecule, the TGI in experiment [1] came out at 3.19 µM; in experiment [2], 3.02 µM; in [3] it was 6.6 µM; in experiment [4] it was 3.95 µM; in [5] it was 2.99 µM; in experiment [6], 2.81 µM. The TGI was determined as 15 µM in experiment [7], 45 µM in experiment [8], 29.3 µM in experiment [9] and 27.8 µM in experiment [10].

For the molecule `Nc1c(C(=O)c2cccc(C#CCN3CCCCC3)c2)cnn1-c1ccc(F)cc1`, the GI50 in experiment [1] was above 25 µM; in experiment [2], above 25 µM; in experiment [3], above 17.7 µM; in experiment [4] it was 24.4 µM; in [5], above 25 µM; in [6], 16.2 µM. Moreover, the GI50 in experiment [7] was above 23.4 µM; in experiment [8], above 19.9 µM; in experiment [9] it was above 25 µM; in experiment [10], above 25 µM. Further, the TGI in [1], in experiment [2], in experiment [3], in experiment [4], in [5] and in experiment [6] was above 25 µM each time. For the same molecule, the TGI in [7], in experiment [8], in experiment [9] and in experiment [10] was above 25 µM in each case.

Regarding `COc1cccc(CNc2ncnc3c2ncn3C2OC(CO)C(O)C2O)c1O` (centres undefined), the GI50 in [1] is 0.27 µM; in experiment [2] it was 0.144 µM; in experiment [3], 0.9 µM; in [4], 0.045 µM; in experiment [5] it was 0.0616 µM; in [6] it was 0.123 µM. Besides, the GI50 in [8] is 0.168 µM; in [9] it was 0.179 µM; in experiment [10], 0.931 µM. The TGI in [1] is above 100 µM; in experiment [2], 1.85 µM; in experiment [3], above 100 µM; in experiment [4] it was above 100 µM; in [5], above 100 µM; in experiment [6], above 28.6 µM. The TGI is above 100 µM in experiment [7], above 100 µM in experiment [8], 0.932 µM in [9] and above 100 µM in [10].

On to `FC(F)(F)c1ccc(-c2nn3ncccc3c2-c2ccnc(Nc3ccc4c(c3)OCCO4)n2)cc1`, for which the GI50 in experiment [1] was 17.3 µM; in experiment [2] it was above 19.7 µM; in experiment [3], 6.03 µM; in [4], 9.77 µM; in [5] it was 5.16 µM; in experiment [6], 3 µM. Besides, the GI50 in experiment [7] is above 20.5 µM; in experiment [8], 9.6 µM; in experiment [9] it was 9.08 µM; in experiment [10] it was 11.9 µM. Further, the TGI is above 25 µM in experiment [1]; above 25 µM in experiment [2]; above 25 µM in experiment [3]; above 25 µM in experiment [4]; 15.3 µM in experiment [5]; above 21.9 µM in experiment [6]. Moreover, the TGI in [7], in experiment [8], in experiment [9] and in experiment [10] was above 25 µM in each case.

For the molecule `CSc1ncnc2c1ncn2CC(=O)C1CCC2C3CCC4=CC(=O)CCC4(C)C3CCC12C` (centres undefined), the TGI was above 100 µM in experiment [1]; 44.7 µM in experiment [2]; above 100 µM in experiment [3]; above 93.8 µM in experiment [4]; 19.4 µM in experiment [5]; 2.52 µM in experiment [6]. For the same molecule, the TGI in experiment [7] was 29.8 µM; in experiment [8], 7.57 µM; in experiment [9], above 100 µM; in experiment [10], 18.9 µM.

`C=CC(C)(C)n1cc(C2=C(O)C(=O)C(c3cn(C(C)(C)C=C)c4ccccc34)=C(O)C2=O)c2ccccc21`: the TGI in experiment [1] is above 34.8 µM; in experiment [2], 4.11 µM; in experiment [3], 16.2 µM; in experiment [4], 7.03 µM; in [5], 11.2 µM; in experiment [6] it was 4.27 µM. The TGI is 14.3 µM in [7], 6.72 µM in experiment [8], 10.4 µM in [9] and 12.6 µM in experiment [10].

As to `CCCCCCNCCCNc1c2cc(OC)ccc2nc2cccc([N+](=O)[O-])c12`, the GI50 in [1] is 0.205 µM; in experiment [2] it was 0.239 µM; in experiment [3], 0.0544 µM; in experiment [4], 0.132 µM; in experiment [5], 0.272 µM; in [6], 0.187 µM. The GI50 in experiment [7] was 0.38 µM; in experiment [8], 0.555 µM; in experiment [9] it was 0.266 µM; in experiment [10] it was 0.0337 µM. Also, the TGI in [1] is 0.368 µM and 0.724 µM; in [2], 1.18 µM and 0.616 µM; in experiment [3], 0.407 µM and 0.353 µM; in experiment [4], 0.421 µM and 0.343 µM; in [5] it was 0.542 µM and 0.974 µM; in experiment [6], 0.703 µM and 0.431 µM. For the same molecule, the TGI is 0.716 µM and 1.41 µM in experiment [7]; 2.41 µM and 3.65 µM in [8]; 4.94 µM and 0.961 µM in experiment [9]; 0.183 µM in [10].

The values are drawn from PubChem BioAssay (NCI).
